According to patent US12187716B2, “TYK2 kinase inhibitors” (SAREUM LIMITED, priority 2018, dated 2025):
pIC50: −log10 of the molar value.

Columns and labels:
[1] = target: JAK3 (Homo sapiens, UniProt P52333); experiment: JAK3 kinase inhibition assay (33P-ATP filter binding, Reaction Biology)
[2] = tested on: pSTAT3 in HT29 cells; experiment: pSTAT3 inhibition in response to IL-22 stimulation in serum starved HT29 cells; format: cell-based
Procedure: HT29 cells were serum starved overnight before the four test compounds were diluted to generate a 9-point semi-log dose dilution with a top concentration of 10 μM, plus vehicle control. HT29 cells were incubated with the test compounds for 20 min at 37° C. HT29 cells were incubated for a further 15 min with 10 ng/ml human IL-22 before cells were fixed with 4% PFA for 10 min, and 90% methanol for 30 min before being labelled with a phospho-STAT3Y705 antibody (CST #9145). Cells were rinsed three times using 0.5% BSA/PBS solution before being incubated with Alexa-488 anti-rabbit secondary antibodies.
Mean fluorescence intensity of phospho-STAT3 in single cells was analysed by flow cytometry using an Intellicyt iQue instrument and FlowJo software. The IC50 was determined using a four-parameter analysis following removal of background signal and normalisation to the DMSO control.

[3] = target: JAK1 (Homo sapiens, UniProt P23458); experiment: JAK1 kinase inhibition assay (33P-ATP filter binding, Reaction Biology)
[4] = target: TYK2 (Homo sapiens, UniProt P29597); experiment: TYK2 kinase inhibition assay (33P-ATP filter binding, Reaction Biology)
TYK2, sequence (P29597 833-1187): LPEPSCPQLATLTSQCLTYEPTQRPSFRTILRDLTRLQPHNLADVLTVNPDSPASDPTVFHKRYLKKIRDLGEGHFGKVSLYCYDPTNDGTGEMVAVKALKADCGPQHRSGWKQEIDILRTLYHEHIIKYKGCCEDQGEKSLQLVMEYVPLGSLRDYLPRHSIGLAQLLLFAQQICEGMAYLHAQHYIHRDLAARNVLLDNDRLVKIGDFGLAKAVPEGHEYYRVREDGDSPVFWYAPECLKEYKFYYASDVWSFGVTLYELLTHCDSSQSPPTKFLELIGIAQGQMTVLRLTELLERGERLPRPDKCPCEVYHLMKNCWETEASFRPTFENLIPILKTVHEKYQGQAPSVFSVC

JAK3, sequence (P52333 781-1124): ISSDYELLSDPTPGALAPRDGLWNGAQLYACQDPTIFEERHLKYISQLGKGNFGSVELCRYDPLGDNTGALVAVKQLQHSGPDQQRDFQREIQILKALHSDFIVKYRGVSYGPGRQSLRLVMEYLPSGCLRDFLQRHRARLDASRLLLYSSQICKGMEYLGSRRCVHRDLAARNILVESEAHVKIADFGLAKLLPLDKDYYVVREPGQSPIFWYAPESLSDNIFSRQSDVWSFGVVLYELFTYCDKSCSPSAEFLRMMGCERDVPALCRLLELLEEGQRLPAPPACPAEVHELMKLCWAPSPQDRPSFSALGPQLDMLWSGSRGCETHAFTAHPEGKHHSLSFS
JAK1, sequence (P23458 866-1154): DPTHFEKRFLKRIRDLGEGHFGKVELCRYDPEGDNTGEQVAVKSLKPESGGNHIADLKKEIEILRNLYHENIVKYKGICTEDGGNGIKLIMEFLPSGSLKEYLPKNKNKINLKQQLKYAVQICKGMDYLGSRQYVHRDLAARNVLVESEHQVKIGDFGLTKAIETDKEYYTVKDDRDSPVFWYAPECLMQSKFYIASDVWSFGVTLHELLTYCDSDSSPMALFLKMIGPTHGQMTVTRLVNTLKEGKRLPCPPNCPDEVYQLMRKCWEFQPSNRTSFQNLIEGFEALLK

pIC50 [1]: 6.54
pIC50 ([2]; Homo sapiens, HT-29, HT29 cells, 10 ng/ml human IL-22): 6.77
pIC50 [3]: 7.31
pIC50 [4]: 8.00
Structure (SMILES): NC(=O)c1nc(-c2c(F)cccc2Cl)oc1Nc1ccc(C(=O)N2CCOCC2)cc1 [A, 2-(2-chloro-6-fluoro-phenyl)-5-[4-(morpholine-4-carbonyl)-phenylamino]-oxazole-4-carboxylic acid amide, reference compound]
inhibition at 10 µM ([2]; HT-29, HT29 cells, 10 ng/ml human IL-22, 10 μM compound): 96.9%
